In paper PMC11269473, “Monoamine oxidase inhibition properties of 2,1-benzisoxazole derivatives” (Molecular Diversity, 2023):
Where “and” joins values, the source holds several entries; their conditions need not be identical. Equal values may be shown once.

Legend:
[1] = biological target: T1, recombinant human MAO-A (Homo sapiens, UniProt P21397); assay: MAO-A inhibition, IC50 determination with kynuramine as substrate (fluorescence of 4-hydroxyquinoline); type: biochemical; conditions: 50 µM kynuramine, mean ± SD of triplicate, NI = no inhibition observed at 100 µM
T1 construct: purchased Sigma-Aldrich; host or cells: insect cells (microsomes)
T1 sequence (P21397 1-527): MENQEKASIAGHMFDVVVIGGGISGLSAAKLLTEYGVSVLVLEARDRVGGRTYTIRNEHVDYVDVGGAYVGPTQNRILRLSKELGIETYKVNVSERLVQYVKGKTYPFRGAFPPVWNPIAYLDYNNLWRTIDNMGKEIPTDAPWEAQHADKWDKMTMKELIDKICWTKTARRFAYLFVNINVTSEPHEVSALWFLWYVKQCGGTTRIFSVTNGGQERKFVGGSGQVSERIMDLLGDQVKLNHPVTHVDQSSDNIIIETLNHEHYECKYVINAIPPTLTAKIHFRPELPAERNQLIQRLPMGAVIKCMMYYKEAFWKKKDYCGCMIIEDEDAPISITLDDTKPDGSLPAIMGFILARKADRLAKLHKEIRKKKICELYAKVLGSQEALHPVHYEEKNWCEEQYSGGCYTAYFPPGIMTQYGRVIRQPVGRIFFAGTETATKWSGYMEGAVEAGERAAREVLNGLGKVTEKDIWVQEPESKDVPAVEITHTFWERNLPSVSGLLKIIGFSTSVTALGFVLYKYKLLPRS
Description: (§1) The MAO inhibition properties of the 2,1-benzisoxazole derivatives were investigated using the commercially available recombinant human MAO-A and MAO-B enzymes with kynuramine serving as substrate. MAO oxidizes kynuramine to yield 4-hydroxyquinoline, which was measured by fluorescence spectrophotometry.
(§2) For the MAO inhibition studies, a Varian Cary Eclipse fluorescence spectrophotometer was employed. Microsomes from insect cells containing recombinant human MAO-A and MAO-B (5 mg protein/mL) and kynuramine dihydrobromide were obtained from Sigma-Aldrich.
(§3) IC50 values for the inhibition of MAO were measured as described previously. Microsomes from insect cells containing recombinant human MAO-A and MAO-B (5 mg protein/mL) served as enzyme sources (Sigma-Aldrich) while kynuramine was used as non-specific MAO substrate. The enzyme reactions (200 µL reactions prepared in 96-well microtiter plates) contained phosphate buffer (100 mM, pH 7.4), 50 µM kynuramine and the test inhibitors at concentrations of 0.003–100 µM. […] The reactions were initiated with addition of MAO-A (0.0075 mg protein/mL) or MAO-B (0.015 mg protein/mL) and after 20 min of incubation at 37 °C, the reactions were terminated by the addition of 80 µL NaOH (2 N). The concentration of 4-hydroxyquinoline, the product of kynuramine oxidation by MAO, was measured by fluorescence spectrophotometry (λex = 310 nm; λem = 400 nm). IC50 values were estimated from sigmoidal plots of enzyme catalytic rate versus the inhibitor concentration (log[I]) which were constructed with the Prism software package (GraphPad). IC50 values were estimated in triplicate determinations from these plots and are expressed as mean ± standard deviation (SD).

[2] = biological target: T2, recombinant human MAO-B (Homo sapiens, UniProt P27338); assay: MAO-B inhibition, IC50 determination with kynuramine as substrate (fluorescence of 4-hydroxyquinoline); type: biochemical; conditions: for SI (selectivity index): SI = IC50(MAO-A)/IC50(MAO-B); for IC50: recombinant human MAO-B, 50 µM kynuramine, mean ± SD of triplicate, NI = no inhibition observed at 100 µM
T2 construct: purchased Sigma-Aldrich; host or cells: insect cells (microsomes)
T2 sequence (P27338 1-520): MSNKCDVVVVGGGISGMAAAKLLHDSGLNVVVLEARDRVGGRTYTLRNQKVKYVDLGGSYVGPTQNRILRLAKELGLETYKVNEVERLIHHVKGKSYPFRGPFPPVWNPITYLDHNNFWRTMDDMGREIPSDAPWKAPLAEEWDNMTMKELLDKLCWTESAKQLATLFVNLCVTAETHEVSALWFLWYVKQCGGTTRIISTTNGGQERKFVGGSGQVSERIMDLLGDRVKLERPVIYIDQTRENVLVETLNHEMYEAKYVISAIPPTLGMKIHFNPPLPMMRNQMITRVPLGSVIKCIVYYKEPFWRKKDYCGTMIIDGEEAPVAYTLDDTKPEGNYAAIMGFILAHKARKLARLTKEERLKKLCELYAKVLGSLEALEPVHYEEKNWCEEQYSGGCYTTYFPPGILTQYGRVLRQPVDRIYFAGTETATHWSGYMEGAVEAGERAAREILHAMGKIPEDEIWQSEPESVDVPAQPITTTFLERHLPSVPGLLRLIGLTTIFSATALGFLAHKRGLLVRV
Description: as §1, §2
as §3, with “The” for “The reactions were initiated with addition of MAO-A (0.0075 mg protein/mL) or MAO-B (0.015 mg protein/mL) and after 20 min of incubation at 37 °C, the reactions were terminated by the addition of 80 µL NaOH (2 N). The”

COc1ccc(-c2onc3ccc(I)cc23)cc1 [Compound 3a, 5-Iodo-3-(4-methoxyphenyl)benzo[c]isoxazole]
IC50 [1]: 19.4 ± 2.58 µM
SI (selectivity index) [2]: 6.4
IC50 [2]: < 6.59 µM and 3.03 µM
melting point: 112 to 114 °C

Clc1ccc(-c2onc3ccc(I)cc23)cc1 [Compound 3b, 3-(4-Chlorophenyl)-5-iodobenzo[c]isoxazole]
IC50 [1]: 77.7 ± 5.97 µM
SI (selectivity index) [2]: 12
IC50 [2]: < 6.59 µM and 6.59 µM
melting point: 185 to 187 °C

Cc1ccc(-c2onc3ccc(Cl)cc23)cc1 [Compound 3c, 5-Chloro-3-(p-tolyl)benzo[c]isoxazole]
IC50 [1]: 8.76 ± 0.058 µM
SI (selectivity index) [2]: 3.3
IC50 [2]: 2.63 ± 0.178 µM
melting point: 136 to 138 °C

C(#Cc1ccc2noc(-c3ccccc3)c2c1)c1ccccc1 [Compound 3d, 3-Phenyl-5-(phenylethynyl)benzo[c]isoxazole]
IC50 [1]: 71.6 ± 3.08 µM
SI (selectivity index) [2]: 9.0
IC50 [2]: 7.92 ± 0.684 µM
melting point: 143 to 144 °C

Cc1nc(-c2cc3noc(-c4ccccc4)c3cc2Cl)no1 [Compound 3e, 5-Chloro-6-(5-methyl-1,2,4-oxadiazol-3-yl)-3-phenylbenzo[c]isoxazole]
IC50 [1]: 8.95 ± 0.581 µM
SI (selectivity index) [2]: 2.5
IC50 [2]: 3.55 ± 0.037 µM
melting point: 171 to 172 °C

CC1(c2ccc3noc(-c4cccc(Cl)c4)c3c2)OCCO1 [Compound 3f, 3-(3-Chlorophenyl)-5-(2-methyl-1,3-dioxolan-2-yl)benzo[c]isoxazole]
IC50 [1]: > 100 µM
IC50 [2]: 25.1 ± 2.41 µM
melting point: 175 to 177 °C

Brc1ccc2noc(-c3ccccc3)c2c1 [Compound 3g, 5-Bromo-3-phenylbenzo[c]isoxazole]
IC50 [1]: 19.5 ± 3.2 µM
SI (selectivity index) [2]: 3.4
IC50 [2]: 5.79 ± 0.013 µM
melting point: 116 to 118 °C

Ic1ccc2noc(-c3ccccc3)c2c1 [Compound 3h, 5-Iodo-3-phenylbenzo[c]isoxazole]
IC50 [1]: 17.7 ± 0.424 µM
SI (selectivity index) [2]: 1.1
IC50 [2]: < 16.3 µM and 16.3 µM
melting point: 112 to 115 °C

Cc1ccc(-c2onc3ccc(I)cc23)cc1 [Compound 3i, 5-Iodo-3-(p-tolyl)benzo[c]isoxazole]
IC50 [1]: 43.9 ± 11.3 µM
SI (selectivity index) [2]: 13
IC50 [2]: < 6.59 µM and 3.49 µM
melting point: 109 to 110 °C

Clc1ccc2noc(-c3ccccc3)c2c1 [Compound 3j, 5-Chloro-3-phenylbenzo[c]isoxazole]
IC50 [1]: 10.6 ± 0.049 µM
IC50 [2]: 4.43 ± 0.12 µM

Clc1cc2noc(-c3ccccc3)c2cc1Cl [Compound 3k, 6-Dichloro-3-phenylbenzo[c]isoxazole]
IC50 [1]: > 100 µM
IC50 [2]: 5.56 ± 0.73 µM

Clc1ccc2noc(-c3ccc(Br)cc3)c2c1 [Compound 3m, 3-(4-Bromophenyl)-5-chlorobenzo[c]isoxazole]
IC50 [1]: 83.2 ± 33.3 µM
SI (selectivity index) [2]: 71
IC50 [2]: 1.18 ± 0.022 µM
melting point: 230 to 232 °C

Clc1ccc(-c2onc3ccc(Cl)cc23)cc1 [Compound 3n, 5-Chloro-3-(4-chlorophenyl)benzo[c]isoxazole]
IC50 [1]: 81.3 ± 28.7 µM
SI (selectivity index) [2]: 39
IC50 [2]: 2.07 ± 0.381 µM
melting point: 229 to 232 °C

COc1ccc(-c2onc3ccc(Cl)cc23)cc1 [Compound 3o, 5-Chloro-3-(4-methoxyphenyl)benzo[c]isoxazole]
IC50 [1]: 8.49 ± 0.017 µM
SI (selectivity index) [2]: 3.6
IC50 [2]: 2.34 ± 0.055 µM
melting point: 174 °C

c1ccc(-c2onc3ccc(Oc4ccc5noc(-c6ccccc6)c5c4)cc23)cc1 [Compound 5, 5,5'-Oxybis(3-phenylbenzo[c]isoxazole)]
IC50 [1]: 3.29 ± 0.254 µM
SI (selectivity index) [2]: 0.33
IC50 [2]: 10 ± 0.949 µM
melting point: 190 to 192 °C

COc1ccc2c(c1)[nH]c1c(C)nccc12 [Harmine, reference compound]
IC50 [2]: > 100 µM
